Each structure is given as a SMILES string. Several values for one entry are separate records, joined by “and”; a condition that tells them apart may be missing. Equal entries are not always repeated.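 Compound exposure: 48 hours, 5 concentrations, 96-well plates. GI50: concentration for 50% inhibition of growth. The concentration for full growth arrest is given as TGI.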

What all share (assay): inhibition of tumour cell growth, NCI panel, 48 h
In assay [1] the test system is SN12C renal.
Assay [2] deals with CCRF-CEM leukemia.
The test system of assay [3] is SK-MEL-28 melanoma.
In assay [4] the test system is RPMI-8226 leukemia.
Assay [5] has as its system A549 NSCLC.
Assay [6] has as its system MALME-3M melanoma.
Assay [7] has as its system CAKI-1 renal.
Assay [8] concerns SK-MEL-2 melanoma.
For assay [9], the system named is MDA-MB-231 breast.

Take `Cn1nc(-c2ccccc2)c2c(/C=C/c3ccc(Cl)cc3)onc2c1=O`: the TGI is more than 100 µM in assay [1]; more than 100 µM in assay [2]; more than 100 µM in assay [3]; more than 100 µM in assay [4]; 35.4 µM in assay [5].
For `O=C1c2cccc([N+](=O)[O-])c2C(=O)c2nccnc21`, the TGI was determined as 3.04 µM in [6]; 3.64 µM in assay [1]; 5.65 µM in [2]; 3.01 µM in [3]; 7.92 µM in assay [4]; 3.37 µM in [5]. For the same compound, the TGI in assay [7] stood at 16.4 µM; in assay [8], 2.9 µM.
Regarding `O=C(CN(Cc1ccccc1)Cc1ccccc1)N1CCc2c([nH]c3ccccc23)C1c1cccnc1` (stereo not given), the TGI in [1] is 8.64 µM; in assay [2] it was 41.4 µM; in [3], more than 100 µM; in [4], 4.53 µM; in assay [5] it was more than 100 µM; in [7], more than 100 µM.
For `COC(=O)C(=O)C(C#N)c1cccc(Cl)c1` (stereo not given), the TGI in assay [6], in [1], in assay [2], in assay [3], in assay [4] and in [5] was more than 100 µM in each case. The TGI in [7] and in assay [8] was more than 100 µM each time.
For the compound `CC12CCCC(C#N)(C1)OC2=O` (stereo not given), the TGI in [6], in [1], in assay [2], in assay [3], in assay [5] and in [7] was more than 100 µM each time. The compound also gave a TGI in assay [8] of more than 100 µM.
Regarding `Cc1cc2nc3c(=O)[nH]c(=O)nc-3n(CC(O)C(O)C(O)CO)c2cc1N` (stereo not given), the TGI in [1], in assay [2], in assay [3], in [4], in assay [5] and in assay [8] was more than 100 µM in each case.
`CCC1(OC(=O)CNC)C(=O)OCc2c1cc1n(c2=O)Cc2cc3ccccc3nc2-1` (stereo not given): the TGI in [6] was 1.31 µM; in [1], 0.849 µM; in assay [2] it was 0.468 µM; in assay [3], 2.7 µM; in [4] it was 0.415 µM; in assay [5], 0.958 µM. The TGI in assay [8] is 0.577 µM; in assay [9] it was 3.94 µM.
In the case of `COc1ccc(CN2C(=O)/C(=C\C(=O)c3ccc(OCCN4CCCC4)cc3)c3ccccc32)cc1`, the GI50 in [6] is 1.75 µM; in assay [2], 3.34 µM; in [3], 1.79 µM; in assay [4], 2.54 µM; in assay [5], 13.2 µM; in assay [7] it was 11.8 µM. Moreover, the GI50 is 17.1 µM in [8] and 2.17 µM in [9]. Also, the TGI worked out at 3.35 µM in [6]; 32.2 µM in assay [2]; 3.42 µM in [3]; 6.29 µM in [4]; 36.2 µM in assay [5]; 27 µM in assay [7]. In addition, the figures for the TGI in [8] and in assay [9] were 37.4 µM and 4.44 µM, respectively.
With `N.N.N.N.N.N#Cc1nn[n-]n1.[Cl-].[Co+3]`, the GI50 in assay [6], in assay [1], in assay [2], in assay [3], in [4] and in [5] was more than 100 µM each time. Moreover, the GI50 in assay [7] and in assay [8] was more than 100 µM in each case. Besides, the TGI in assay [6], in [1], in assay [2], in assay [3], in assay [4] and in [5] was more than 100 µM in each case. Besides, the TGI in assay [7] and in [8] was more than 100 µM throughout.
On to `O=C1C(Cl)=C(Cl)C(=O)N1c1ccccc1Cl`, for which the TGI is more than 88 µM in [6]; more than 100 µM in assay [1]; 19.3 µM in [2]; more than 100 µM in [3]; more than 88.1 µM in assay [4]; more than 100 µM in assay [5]. Further, the TGI is more than 60.9 µM in assay [7] and more than 100 µM in [8].
For `CN(C)CCCOc1ccc(/C=C2/CCC/C(=C/c3ccc(OCCCN(C)C)cc3)C2=O)cc1`, the TGI in assay [6] amounted to 3.32 µM; in [1] it was 2.96 µM; in assay [2] it was 3.84 µM; in assay [3], 4 µM; in assay [4], 3.43 µM; in assay [5] it was 6.28 µM. Moreover, the TGI in [8] is 3.69 µM.
On to `COc1cccc(N2C(=O)/C(=C/c3ccc(N(CCC#N)CCC#N)cc3)N=C2c2cc([N+](=O)[O-])ccc2Cl)c1`, for which the TGI in [6], in assay [1], in assay [2], in [3], in [4] and in [7] was more than 100 µM in each case. In addition, in [8], the TGI was more than 100 µM.
As to `O=C(CCC(=O)Nc1ccc(Cl)cc1)CC(=O)c1ccc2ccccc2c1`, the TGI in [6], in assay [1], in assay [2], in [3], in assay [4] and in [5] was more than 100 µM each time. Besides, the TGI in [7] and in assay [8] was more than 100 µM throughout.
Consider `CCOC(=O)NC(=O)c1cn(CCCCCCCCCCC(=O)NCCCN2CCN(CCCNC(=O)CCCCCCCCCCn3cc(C(=O)NC(=O)OCC)c(=O)[nH]c3=O)CC2)c(=O)[nH]c1=O`, for which the TGI in assay [6] is more than 100 µM; in [1], more than 100 µM; in [2] it was more than 100 µM; in assay [3], more than 100 µM; in assay [5], more than 100 µM; in [7] it was more than 10 µM. In [8], this compound showed a TGI of more than 100 µM.
Regarding `O=C(Nc1ccccc1)n1cc(-c2ccccn2)c(N2CCOCC2)n1`, the TGI is 8.78 µM in assay [6]; more than 100 µM in [1]; more than 100 µM in [2]; more than 100 µM in [4]; more than 100 µM in assay [5]; 49.7 µM in assay [7].
As for `COC(=O)C(=NNc1ccccc1[N+](=O)[O-])C(=O)OC`, the TGI in [6], in assay [1], in assay [2], in assay [3], in [5] and in assay [7] was more than 100 µM throughout. This compound also had a TGI in [8] of more than 100 µM.
Take `CN1C(c2ccccc2)CC(C)(O)CC1c1ccccc1` (stereo not given): the TGI in [6], in assay [1], in [2], in [3], in assay [4] and in [5] was more than 100 µM throughout. Besides, the TGI in assay [7] and in assay [8] was more than 100 µM throughout.
Take `CCC1=C[C@@H]2CN(C1)Cc1c([nH]c3ccccc13)[C@@](C(=O)OC)(c1cc3c(cc1OC)N(C)[C@H]1[C@@](O)(C(=O)OC)[C@H](OC(C)=O)[C@]4(CC)C=CCN5CC[C@]31[C@@H]54)C2`: the GI50 is less than 0.01 µM in assay [6]; less than 0.0214 µM in assay [1]; less than 0.01 µM in assay [2]; less than 0.01 µM in assay [3]; less than 0.01 µM in assay [4]; less than 0.019 µM in [5]. Moreover, the figures for the GI50 in assay [8] and in assay [9] were 0.727 µM and less than 0.018 µM, respectively. The TGI in assay [6] was 4.92 µM; in assay [1], 43.7 µM; in assay [2], 0.71 µM; in assay [3] it was 18.2 µM; in [5] it was more than 34.1 µM; in [7], 2.52 µM. For the same compound, the TGI in assay [8] was 9.23 µM; in [9], 8.04 µM.
With `Cc1cc(Cl)ccc1NC(=O)CC1SC(=NC(=O)c2ccccc2Cl)NC1=O` (stereo not given), the TGI in [6] is 37.1 µM; in assay [1], 33.5 µM; in [2], 8.66 µM; in [3] it was 44.8 µM; in assay [4], 38.4 µM; in [5], more than 100 µM. Further, the TGI in assay [7] was 33.9 µM; in [8], 71.1 µM.
Consider `N#CC(C(=O)/C(=N/NC(=O)c1ccccc1O)C(C#N)c1ccc(Br)cc1)c1ccc(Br)cc1` (stereo not given), for which the TGI in assay [6] stood at 24.6 µM; in assay [1], 21.9 µM; in assay [2], 76.4 µM; in [3] it was 28.2 µM; in assay [5], 39.9 µM; in assay [8], 25 µM.
With `N#CCCN(C1=NN(C(=O)CC(=O)Nc2ccc(Cl)cc2)C(c2ccccc2)C1)c1ccc(Cl)cc1` (stereo not given), the TGI in assay [6], in assay [1], in assay [2], in assay [3], in [4] and in [5] was more than 100 µM throughout. Also, the TGI in assay [7] and in [8] was more than 100 µM in each case.
Take `CC(=O)n1nnc2ccc([N+](=O)[O-])cc21`: the TGI in assay [6], in assay [1], in assay [2], in assay [3], in [4] and in [5] was more than 100 µM each time. The TGI in assay [7] and in assay [8] was more than 100 µM in each case.
In the case of `N#CC(C#N)=Cc1ccc(C(O)P(=O)(O)O)cc1` (stereo not given), the TGI in assay [6], in assay [1], in assay [2], in assay [3], in [4] and in [5] was more than 100 µM in each case. The TGI in [7] and in [8] was more than 100 µM each time.
As for `O=CC1CCC=CC1NC(=O)OCc1ccccc1` (stereo not given), the TGI in [1], in assay [2], in [3], in [4], in [5] and in assay [7] was more than 100 µM in each case. Moreover, in assay [8], the TGI is more than 100 µM.
Turning to `Cn1cnc([N+](=O)[O-])c1Sc1nc2ccccc2o1`, the TGI in [6] turned out to be 16.6 µM; in [1], 18.5 µM; in [2], 12.8 µM; in assay [3], 18.6 µM; in [4] it was 22.5 µM; in assay [5], 75.4 µM. Also, the TGI was determined as 6.19 µM in [7] and 52.9 µM in assay [8].
Take `Cc1ccc(C(=O)C(c2nc3n(c2O)C(=N)N=N3)c2nc3n(c2O)C(=N)N=N3)cc1` (stereo not given): the TGI in assay [6], in assay [1], in assay [2], in assay [3], in [4] and in [5] was more than 100 µM in each case. Further, the TGI in assay [7] and in assay [8] was more than 100 µM each time.
In the case of `Cc1ccccc1C=NC12CC3CC(CC(C3)C1)C2`, the TGI in assay [6], in [1], in [2], in assay [3], in assay [4] and in assay [5] was more than 100 µM each time. Further, the TGI in [7] and in assay [8] was more than 100 µM throughout.
With `COC(=O)[C@H](Cc1ccccc1)NNC(=O)c1csc([C@@H](C[C@H](C(C)C)N(C)C(=O)[C@@H](NC(=O)[C@H]2CCCCN2C)C2CC2)OC(C)=O)n1`, the TGI was more than 100 µM in assay [6]; 25 µM and > 100 µM in [1]; 25 µM and > 100 µM in assay [2]; 25 µM and > 100 µM in assay [3]; 25 µM and > 100 µM in assay [4]; 25 µM and > 100 µM in assay [5]. In assay [8], this compound gave a TGI of more than 100 µM. Also, the GI50 is 0.00377 µM and 0.0025 µM and 0.0213 µM in assay [2]; 0.035 µM and 0.0932 µM in assay [8].
In the case of `CC12CC/C(=N/NC(N)=O)C3C1CCCC32`, the TGI in [6], in assay [1], in [2], in assay [3], in assay [4] and in assay [5] was more than 100 µM in each case. Besides, the TGI in assay [7] and in assay [8] was more than 100 µM each time.
For `CCc1cccc(C)c1N1C(=O)C(=O)C(c2nc3ccccc3o2)/C(=N/NC(=S)NN)C1=O` (stereo not given), the TGI in assay [6], in assay [1], in assay [2], in assay [3], in [4] and in assay [5] was more than 100 µM throughout. Also, the TGI in assay [7] and in assay [8] was more than 100 µM throughout.
`N#CC(C(=O)CCC(=O)Nc1ccc(Cl)cc1)c1ccc(Cl)cc1` (stereo not given): the TGI in assay [6], in assay [1], in assay [2], in assay [4], in assay [5] and in [7] was more than 100 µM throughout. Moreover, the TGI in [8] was more than 100 µM.

Source of the values: PubChem BioAssay (NCI).
